“And” between values parts separate entries of the source, which are not always exact repeats. Equal entries are not always repeated.
Tests used:
[1] = Oxygen radical scavenging capacity (ORAC) assay; settings: for ORAC value: Trolox equivalents per 1 g of compound, mean ± SD, n = 3; for decrease of ORAC antioxidant activity relative to 4-hydroxybenzoic acid: additional methoxy group(s) in ortho-positions of the p-OH
Description: The antioxidant activity of compounds was measured using the ORAC assay according to a previous method. Briefly, 150 μL 8.16 × 10^−5 mM fluorescein working solution was added to the inner wells of a 96-well microplate. Then the plate was incubated at 37 °C for 10 min, after which another 25 μL diluted antioxidants were added using Trolox as standard and 75 mM buffer solution as blank. The plate was shaken every 3 min during the incubation. […] All samples were analyzed in triplicate at three different dilutions. ORAC values were expressed as mean micromoles of Trolox equivalents (TE) per 1 g of the compound.

α-amylase (EC3.2.1.1) = test: α-Amylase inhibition assay; assay type: biochemical; settings: for IC50: mean ± SD, samples in 30% (v/v) ethanol-PBS
Description: The inhibition assay with the α-amylase was performed as a previously reported protocol with a slight modification. […] Then, 1 U mL^−1 α-amylase (EC3.2.1.1), soluble starch solution (1%, w/v) and 3,5-dinitrosalicylic acid (DNS) were all dissolved in PBS (50 mM, pH 6.9). The mixed system contained a 500 μL sample or blank solution and 500 μL α-amylase incubated at 37 °C for 10 min, followed by the addition of 500 μL of preheated starch solution into the mixed incubated system to initiate the enzymatic hydrolysis reaction (37 °C, 10 min). Finally, 1 mL of DNS was added to halt the reaction, and the mixture was then allowed to sit in boiling water for 5 min. The absorbance was measured at 540 nm using a microplate reader (SpectraMax 190, Molecular Devices Co., Sunnyvale, CA, USA) at room temperature. The inhibition rate of the samples was calculated using the following equation: Inhibition rate (%)=[1−(Asample−Asample blank)/(Acontrol−Acontrol blank)]×100 where Asample, Asample blank, Acontrol, Acontrol blank represent the absorbance of the presence and absence of enzymes in sample solutions, and the absorbance of the presence and absence of enzymes in buffer solutions. The half-maximal inhibitory concentration (IC50) of each compound was obtained by regression analysis.

[2] = target: α-glucosidase (EC3.2.1.20); test: α-Glucosidase inhibition assay; assay type: biochemical; settings: mean ± SD; samples in 30% (v/v) ethanol-PBS
Description: The inhibition assay with the α-glucosidase was carried out as a previously described protocol. […] The incubated system contained 50 μL of samples and 100 μL of the α-glucosidase solution was added to a 96-well plate at 37 °C for 10 min. Then, 50 μL of the substrate pNP-α-G was added to start the reaction at 37 °C. After 10 min, 100 μL of 1 M Na2CO3 solution was added to inactivate α-glucosidase and halt the generation of substrates, and the absorbance was read at 405 nm with the micro-plate reader (SpectraMax 190, Molecular Devices Co., Sunnyvale, CA, USA). The percentage of inhibition and the values of IC50 of samples were calculated by the same equation as α-amylase inhibition assay.

[3] = Dissolution in 30% (v/v) ethanol-water solvent system; assay type: physicochemical; settings: high-concentration
HepG2 cells = test: Cellular antioxidant activity (CAA) assay; assay type: cell-based; settings: for CAA value: converted from EC50, quercetin equivalents; for EC50: Homo sapiens, HepG2, HepG2 cells
Description: HepG2 cells (ATCC Co., Manassas, VA, USA) were incubated in DMEM with 1% penicillin-streptomycin and 10% FBS and maintained at 37 °C with 5% CO2. The modified methylene blue assay was used to determine cytotoxicity.
The CAA assay was performed, according to Wolfe et al., with slight modification. In brief, 6 × 10^4 HepG2 cells were placed in each well of a black-walled 96-microwell plate. 200 μL of PBS was added to the edge of the plate to prevent the edge effect. After adherence, cells were treated with a range of concentrations of benzoic acid derivatives and a standard (quercetin) containing 50 μM DCFH-DA for 1 h under the same culture condition. After removing the supernatant medium, the cells were washed with or without PBS. Then promptly added 600 μM ABAP into each well except blank groups before reading at 485 nm excitation and 538 nm emission using a multifunctional microplate detector (Molecular Devices, Sunnyvale, CA, USA). The fluorescence values were recorded every 5 min for 1 h. The CAA values were obtained by converting the EC50 values and presented as μmol quercetin equivalents (QE)/100 μmol.

| IC50 (α-amylase (EC3.2.1.1)) | IC50 [2] | SMILES | ORAC value [1] | further results |
| --- | --- | --- | --- | --- |
| – | – | COc1cc(C(=O)Cl)c(O)c(O)c1O [Compound 1, 2,3,4-trihydroxy-5-methoxy benzoyl chloride] | 4094.6 ± 32.1 μmol TE/g | – |
| 40.5 ± 0.44 mM | 26.1 ± 0.67 mM | COc1ccc(O)c(C(=O)O)c1 [Compound 2, 2-hydroxy-5-methoxybenzoic acid] | 32648.1 ± 2181.8 μmol TE/g | – |
| – | – | CC(=O)SC(C)=O [Compound 3, acetyl sulfide] | 1.3 ± 0.2 μmol TE/g | – |
| 36 ± 2.23 mM | 30.5 ± 1.02 mM | O=C(O)c1cc(O)ccc1O [Compound 4, gentisic acid] | 23113.1 ± 1057.9 μmol TE/g | – |
| – | – | COc1ccc(C(=O)O)cc1O [Compound 5, 3-hydroxy-4-methoxybenzoic acid] | 20705.9 ± 835.9 μmol TE/g | solubility in 30% (v/v) ethanol-water system [3]: cannot be dissolved |
| – | – | Cc1cncc(CC(O)C(O)CO)n1 (stereo not shown) [Compound 9, 2-methyl-6-(2′,3′,4′-trihydroxybutyl)-pyrazine] | 78.0 ± 2.9 μmol TE/g | – |
| – | – | COc1cc(OC2OC(CO)C(O)C(O)C2O)cc(O)c1OC [Compound 10, 3-hydroxy-4,5-dimethoxyphenyl-β-D-glucopyranoside] | 4177.5 ± 324.2 μmol TE/g | – |
| – | – | COc1ccc(OC2OC(CO)C(O)C(O)C2O)cc1OC [Compound 11, 3,4-dimethoxyphenyl-O-β-D-glucopyranoside] | 56.5 ± 2.8 μmol TE/g | – |
| – | – | COc1cc(OC)c(OC2OC(CO)C(O)C(O)C2O)c(OC)c1 [Compound 12, 2,4,6-trimethoxyphenyl-1-O-β-D-glucopyranoside] | 80.2 ± 2.3 μmol TE/g | – |
| > 100 mM | 20.3 ± 0.39 mM | COc1cc(C(=O)O)cc(OC)c1O [Compound 13, syringic acid] | 1879.9 ± 44.7 μmol TE/g | decrease of ORAC antioxidant activity relative to 4-hydroxybenzoic acid [1]: 7.91 folds |
| – | – | COc1ccc(OC)cc1 [Compound 14, 1,4-dimethoxybenzene] | 2154.2 ± 183.1 μmol TE/g | – |
| – | – | O=c1c(O)c(-c2ccc(O)c(O)c2)oc2cc(O)cc(O)c12 [Quercetin, quercetin, reference compound] | – | EC50 (HepG2 cells; PBS wash protocol): 0.013 mM; EC50 (HepG2 cells; no PBS wash protocol): 0.00509 mM |

| SMILES | IC50 (α-amylase (EC3.2.1.1)) | IC50 [2] | ORAC value [1] | further results |
| --- | --- | --- | --- | --- |
| O=C(O)c1ccc(O)cc1 [Compound 7, 4-hydroxybenzoic acid] | > 100 mM | 34.1 ± 1.51 mM | 14874.9 ± 599.2 μmol TE/g | α-amylase inhibition (in words) (α-amylase (EC3.2.1.1)): did not show any inhibition effect |
| COc1cc(C(=O)O)ccc1O [Compound 8, vanillic acid] | > 100 mM | 29.7 ± 0.33 mM | 12945.8 ± 1419.3 μmol TE/g | decrease of ORAC antioxidant activity relative to 4-hydroxybenzoic acid [1]: 1.15 folds; cellular uptake rate (CAA value of the PBS wash/no PBS wash × 100%) (HepG2 cells; HepG2 cells): 71.53%; CAA value (HepG2 cells; HepG2 cells, PBS wash protocol): 6.18 μmol QE/100 μmol and 6.18 ± 0.09 μmol QE/100 μmol; CAA value (HepG2 cells; HepG2 cells, no PBS wash protocol): 8.64 μmol QE/100 μmol and 8.64 ± 0.53 μmol QE/100 μmol; EC50 (HepG2 cells; PBS wash protocol): 0.21 ± 0.00322 mM; EC50 (HepG2 cells; no PBS wash protocol): 0.0591 ± 0.00374 mM |

Reference: PMC9563075, “Identification and Structure–Activity Relationship of Recovered Phenolics with Antioxidant and Antihyperglycemic Potential from Sugarcane Molasses Vinasse” (Foods, 2022)
